{"source": "patent US20210228545A1", "about": "“METHODS OF TREATING CONDITIONS RELATED TO THE S1P1 RECEPTOR” (Arena Pharmaceuticals, Inc., priority 2018, published 2021)", "key": {"CYP1A2": {"target": "CYP1A2 (Homo sapiens, UniProt P05177)", "sequence (P05177 whole entry)": "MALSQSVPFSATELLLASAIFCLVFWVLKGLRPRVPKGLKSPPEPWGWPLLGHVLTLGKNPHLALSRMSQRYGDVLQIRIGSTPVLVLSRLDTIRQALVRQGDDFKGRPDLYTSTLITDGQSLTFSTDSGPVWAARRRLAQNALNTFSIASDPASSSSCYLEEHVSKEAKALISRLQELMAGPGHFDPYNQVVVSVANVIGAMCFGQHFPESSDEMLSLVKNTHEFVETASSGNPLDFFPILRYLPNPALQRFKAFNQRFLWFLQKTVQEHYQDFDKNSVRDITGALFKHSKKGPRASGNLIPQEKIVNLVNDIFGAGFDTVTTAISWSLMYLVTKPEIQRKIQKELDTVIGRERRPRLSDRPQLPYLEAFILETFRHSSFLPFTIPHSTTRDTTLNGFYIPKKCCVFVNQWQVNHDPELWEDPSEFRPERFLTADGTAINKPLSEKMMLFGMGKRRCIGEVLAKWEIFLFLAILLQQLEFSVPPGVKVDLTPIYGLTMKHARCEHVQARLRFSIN", "experiment": "Direct inhibition of CYP activity in human liver microsomes", "format": "in vitro ADME", "conditions": "up to 10 μM", "source_text": "(§1) Known metabolism-dependent and/or direct inhibitors of CYP and UGT enzymes were included as positive controls, as applicable."}, "CYP2B6": {"target": "T1, CYP2B6 (Homo sapiens, UniProt P20813)", "T1 construct": "human liver microsomes from a pool of 200 individuals; from tissue; host or cells: human liver microsomes, pool of 200 individuals", "T1 sequence (P20813 whole entry)": "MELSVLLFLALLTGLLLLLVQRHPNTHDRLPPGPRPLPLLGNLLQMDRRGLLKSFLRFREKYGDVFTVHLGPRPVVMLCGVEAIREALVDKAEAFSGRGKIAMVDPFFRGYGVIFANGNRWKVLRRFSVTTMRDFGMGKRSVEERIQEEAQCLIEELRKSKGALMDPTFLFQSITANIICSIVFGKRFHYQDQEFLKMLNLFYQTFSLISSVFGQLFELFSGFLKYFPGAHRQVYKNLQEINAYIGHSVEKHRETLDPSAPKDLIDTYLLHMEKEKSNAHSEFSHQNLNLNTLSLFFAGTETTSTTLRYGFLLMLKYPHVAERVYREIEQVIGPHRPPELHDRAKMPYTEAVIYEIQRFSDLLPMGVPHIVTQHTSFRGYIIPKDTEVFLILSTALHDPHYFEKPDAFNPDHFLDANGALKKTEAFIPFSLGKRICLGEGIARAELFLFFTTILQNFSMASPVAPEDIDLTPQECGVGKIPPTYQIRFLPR", "experiment": "Direct inhibition of CYP activity in human liver microsomes", "format": "in vitro ADME", "conditions": "up to 10 μM", "source_text": "as §1"}, "CYP2C19": {"target": "T2, CYP2C19 (Homo sapiens, UniProt P33261)", "T2 construct": "human liver microsomes from a pool of 200 individuals; from tissue; host or cells: human liver microsomes, pool of 200 individuals", "T2 sequence (P33261 whole entry)": "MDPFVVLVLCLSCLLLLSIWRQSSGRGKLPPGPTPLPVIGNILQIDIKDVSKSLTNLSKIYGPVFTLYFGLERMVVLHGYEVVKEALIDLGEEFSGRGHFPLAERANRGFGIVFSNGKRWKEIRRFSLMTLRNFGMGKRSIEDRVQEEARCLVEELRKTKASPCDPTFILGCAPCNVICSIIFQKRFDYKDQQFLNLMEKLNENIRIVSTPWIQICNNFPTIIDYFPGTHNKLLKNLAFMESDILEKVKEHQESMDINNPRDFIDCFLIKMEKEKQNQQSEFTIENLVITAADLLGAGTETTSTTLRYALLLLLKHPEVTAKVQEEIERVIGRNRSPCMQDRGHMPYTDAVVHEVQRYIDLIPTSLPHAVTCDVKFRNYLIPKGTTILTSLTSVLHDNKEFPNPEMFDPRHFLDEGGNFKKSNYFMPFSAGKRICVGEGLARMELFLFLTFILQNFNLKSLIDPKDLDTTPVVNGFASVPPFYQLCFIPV", "experiment": "Direct inhibition of CYP activity in human liver microsomes", "format": "in vitro ADME", "conditions": "up to 10 μM", "source_text": "as §1"}, "CYP2C8": {"target": "T3, CYP2C8 (Homo sapiens, UniProt P10632)", "T3 construct": "human liver microsomes from a pool of 200 individuals; from tissue; host or cells: human liver microsomes, pool of 200 individuals", "T3 sequence (P10632 1-490)": "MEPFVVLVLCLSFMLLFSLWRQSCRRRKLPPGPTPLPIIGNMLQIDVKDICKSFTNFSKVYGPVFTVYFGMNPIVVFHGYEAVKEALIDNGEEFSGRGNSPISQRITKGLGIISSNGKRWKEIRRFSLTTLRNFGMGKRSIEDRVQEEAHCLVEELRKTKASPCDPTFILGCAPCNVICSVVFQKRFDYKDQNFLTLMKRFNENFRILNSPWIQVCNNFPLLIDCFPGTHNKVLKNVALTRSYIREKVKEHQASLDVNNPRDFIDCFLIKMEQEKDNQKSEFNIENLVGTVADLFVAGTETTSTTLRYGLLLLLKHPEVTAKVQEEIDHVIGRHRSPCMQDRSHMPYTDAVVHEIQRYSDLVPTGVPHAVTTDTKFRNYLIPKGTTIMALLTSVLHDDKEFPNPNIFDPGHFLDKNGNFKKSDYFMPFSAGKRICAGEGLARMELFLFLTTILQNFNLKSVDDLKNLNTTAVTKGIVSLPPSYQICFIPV", "experiment": "Direct inhibition of CYP activity in human liver microsomes", "format": "in vitro ADME", "source_text": "as §1"}, "CYP2C9": {"target": "T4, CYP2C9 (Homo sapiens, UniProt P11712)", "T4 construct": "human liver microsomes from a pool of 200 individuals; from tissue; host or cells: human liver microsomes, pool of 200 individuals", "T4 sequence (P11712 whole entry)": "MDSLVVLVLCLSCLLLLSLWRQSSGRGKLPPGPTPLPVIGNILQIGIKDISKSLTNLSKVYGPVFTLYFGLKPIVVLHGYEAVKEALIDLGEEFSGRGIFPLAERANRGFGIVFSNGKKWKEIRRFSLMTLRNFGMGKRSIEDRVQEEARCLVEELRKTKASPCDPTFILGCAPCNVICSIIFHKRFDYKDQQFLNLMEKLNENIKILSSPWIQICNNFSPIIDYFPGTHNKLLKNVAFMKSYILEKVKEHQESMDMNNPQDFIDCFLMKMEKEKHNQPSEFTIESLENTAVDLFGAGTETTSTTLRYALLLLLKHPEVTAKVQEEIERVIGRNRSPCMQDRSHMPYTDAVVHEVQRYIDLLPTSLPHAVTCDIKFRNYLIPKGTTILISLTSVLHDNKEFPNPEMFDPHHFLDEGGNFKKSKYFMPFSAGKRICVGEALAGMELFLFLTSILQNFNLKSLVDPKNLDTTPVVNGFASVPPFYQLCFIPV", "experiment": "Direct inhibition of CYP activity in human liver microsomes", "format": "in vitro ADME", "conditions": "up to 10 μM", "source_text": "as §1"}, "CYP2D6": {"target": "T5, CYP2D6 (Homo sapiens, UniProt P10635)", "T5 construct": "human liver microsomes from a pool of 200 individuals; from tissue; host or cells: human liver microsomes, pool of 200 individuals", "T5 sequence (P10635 whole entry)": "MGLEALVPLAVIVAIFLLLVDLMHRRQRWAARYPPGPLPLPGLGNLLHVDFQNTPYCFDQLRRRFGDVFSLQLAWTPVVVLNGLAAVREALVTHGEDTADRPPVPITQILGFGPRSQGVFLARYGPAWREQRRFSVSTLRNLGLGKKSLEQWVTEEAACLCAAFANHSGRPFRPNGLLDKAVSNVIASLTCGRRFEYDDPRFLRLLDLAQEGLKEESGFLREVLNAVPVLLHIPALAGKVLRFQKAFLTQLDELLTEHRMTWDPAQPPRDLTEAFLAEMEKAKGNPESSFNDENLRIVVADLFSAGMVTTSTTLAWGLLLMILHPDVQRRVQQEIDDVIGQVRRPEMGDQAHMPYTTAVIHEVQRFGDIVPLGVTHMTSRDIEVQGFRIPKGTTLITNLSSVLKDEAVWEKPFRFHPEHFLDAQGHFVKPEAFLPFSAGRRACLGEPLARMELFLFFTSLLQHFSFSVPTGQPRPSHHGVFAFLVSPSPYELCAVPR", "experiment": "Direct inhibition of CYP activity in human liver microsomes", "format": "in vitro ADME", "conditions": "up to 10 μM", "source_text": "as §1"}, "CYP3A4/5": {"test_system": "CYP3A4/5", "experiment": "Direct inhibition of CYP activity in human liver microsomes", "format": "in vitro ADME", "conditions": "up to 10 μM", "source_text": "as §1"}, "BCRP": {"target": "T6, BCRP (Homo sapiens, UniProt Q9UNQ0)", "T6 sequence (Q9UNQ0 1-655)": "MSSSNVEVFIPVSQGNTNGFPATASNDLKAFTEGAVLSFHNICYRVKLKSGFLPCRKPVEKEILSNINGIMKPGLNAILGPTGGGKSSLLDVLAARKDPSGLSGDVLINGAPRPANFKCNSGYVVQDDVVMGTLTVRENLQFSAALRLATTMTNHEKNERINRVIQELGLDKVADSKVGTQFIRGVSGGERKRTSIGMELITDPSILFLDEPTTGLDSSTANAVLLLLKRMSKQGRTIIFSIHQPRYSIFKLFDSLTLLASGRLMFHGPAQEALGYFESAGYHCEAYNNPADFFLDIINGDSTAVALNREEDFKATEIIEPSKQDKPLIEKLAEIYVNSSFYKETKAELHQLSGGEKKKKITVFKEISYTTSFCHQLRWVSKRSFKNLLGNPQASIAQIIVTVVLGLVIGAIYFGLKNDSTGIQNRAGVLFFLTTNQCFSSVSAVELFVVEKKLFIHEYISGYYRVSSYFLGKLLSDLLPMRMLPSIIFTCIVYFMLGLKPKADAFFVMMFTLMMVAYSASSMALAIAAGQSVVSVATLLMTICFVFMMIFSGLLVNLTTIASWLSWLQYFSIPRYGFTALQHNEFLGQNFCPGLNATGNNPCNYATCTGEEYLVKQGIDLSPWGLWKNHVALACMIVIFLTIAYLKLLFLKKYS", "experiment": "Transporter inhibition, MDCKII-BCRP cells", "format": "in vitro ADME"}, "OAT1": {"target": "T7, OAT1 (Homo sapiens, UniProt Q4U2R8)", "T7 construct": "expressed in transfected cells; host or cells: HEK293", "T7 sequence (Q4U2R8 1-563)": "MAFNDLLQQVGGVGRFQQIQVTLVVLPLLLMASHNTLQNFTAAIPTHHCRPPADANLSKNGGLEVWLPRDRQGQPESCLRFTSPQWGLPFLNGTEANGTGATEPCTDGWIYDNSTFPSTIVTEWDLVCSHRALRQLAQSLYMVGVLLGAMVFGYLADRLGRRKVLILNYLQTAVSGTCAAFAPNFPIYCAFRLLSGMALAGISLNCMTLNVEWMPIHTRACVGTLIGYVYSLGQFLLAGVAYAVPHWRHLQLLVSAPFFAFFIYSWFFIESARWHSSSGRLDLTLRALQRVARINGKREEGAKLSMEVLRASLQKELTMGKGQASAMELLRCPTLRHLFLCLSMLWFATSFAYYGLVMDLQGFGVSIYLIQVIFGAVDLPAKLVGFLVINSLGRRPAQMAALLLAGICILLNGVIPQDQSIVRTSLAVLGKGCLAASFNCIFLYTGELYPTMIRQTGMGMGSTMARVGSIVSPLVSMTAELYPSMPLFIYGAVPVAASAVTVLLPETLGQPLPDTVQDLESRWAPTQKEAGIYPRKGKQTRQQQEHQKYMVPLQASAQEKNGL", "experiment": "Transporter substrate evaluation, HEK293 cells", "format": "in vitro ADME", "conditions": "1 and 10 μM"}, "[1]": {"test_system": "peripheral blood lymphocyte (PBL) counts", "experiment": "Phase 1 single dosing study: peripheral blood lymphocyte counts", "format": "in vivo, human", "method": "Compound 1 was administered as the L-arginine salt.\nThere were no other clinically significant safety issues with respect to vital signs, ECGs, pulmonary function tests, ophthalmoscopy, or clinical laboratory tests with the exception of expected pharmacological effects on peripheral blood lymphocyte counts. Dosing at the 3 and 5 mg induced a dose responsive decline in the absolute number of peripheral blood B cells, T cells, NK cells, and all T cell subsets except TEM cells. Total peripheral blood lymphocyte (PBL) counts were reduced by 2-4 hours after dosing, reaching a nadir by hour 8 which persisted for 24 hours with recovery to baseline over the next 4 days. PBL counts were reduced by ˜40% and ˜55% at the 3 mg and 5 mg dose levels. […] These findings are therefore consistent with the anticipated pharmacodynamic effects of S1P receptor agonists in preclinical studies and in humans (Gergely et al., Br Pharmacol 167(5):1035-1047, 2012; Brossard et al., Br J Clin Pharmacol 2013 April 18. doi:10.1111/bcp.12129. [Epub ahead of print] PubMed PMID: 23594176, and Kovarik et al., J Clin Pharmacol 44(5):532-537, 2004.)"}}, "note": "pIC50: −log10 of the molar value.", "data": [{"smiles": "O=C(O)C[C@H]1CCc2c1[nH]c1ccc(OCc3ccc(C4CCCC4)c(C(F)(F)F)c3)cc21", "note": "[Compound 1, (R)-2-(7-(4-cyclopentyl-3-(trifluoromethyl)benzyloxy)-1,2,3,4-tetrahydrocyclopenta[b]indol-3-yl)acetic acid]", "values": [{"measurement": "Direct inhibition of CYP1A2 activity", "setting": "CYP1A2", "value": "Little or no direct inhibition"}, {"measurement": "Direct inhibition of CYP2B6 activity", "setting": "CYP2B6", "value": "Little or no direct inhibition"}, {"measurement": "Direct inhibition of CYP2C19 activity", "setting": "CYP2C19", "value": "Little or no direct inhibition"}, {"measurement": "inhibition at 1 µM", "setting": "CYP2C8", "value": 22, "unit": "%"}, {"measurement": "inhibition at 10 µM", "setting": "CYP2C8", "value": "~100", "unit": "%"}, {"measurement": "Direct inhibition of CYP2C9 activity", "setting": "CYP2C9", "value": "Little or no direct inhibition"}, {"measurement": "Direct inhibition of CYP2D6 activity", "setting": "CYP2D6", "value": "Little or no direct inhibition"}, {"measurement": "Direct inhibition of CYP3A4/5 activity", "setting": "CYP3A4/5", "value": "Little or no direct inhibition"}, {"measurement": "Reduction of corrected efflux ratio of prazosin (1 μM) across MDCKII-BCRP cells", "setting": "BCRP; 10 and 100 μM, post-assay TEER below acceptance criteria", "value": "more than 50%"}, {"measurement": "pIC50", "setting": "BCRP; MDCKII-BCRP cells, prazosin (1 μM), 0.03 to 30 μM", "value": 4.45}, {"measurement": "Potential substrate of OAT1", "setting": "OAT1; HEK293 cells", "value": "not a substrate of OAT1 and not a substrate and No"}, {"measurement": "Uptake ratio into OAT1-expressing cells", "setting": "OAT1; absence and presence of probenecid (100 μM)", "value": "less than two"}, {"measurement": "Reduction of PBL counts", "setting": "[1]; 3 mg single dose", "value": "~40", "unit": "%"}, {"measurement": "Reduction of PBL counts", "setting": "[1]; 5 mg single dose", "value": "~55", "unit": "%"}, {"measurement": "Time after dosing by which total PBL counts were reduced", "setting": "[1]; 3 and 5 mg", "value": "2 to 4", "unit": "h"}, {"measurement": "Time of PBL nadir", "setting": "[1]; 3 and 5 mg, persisted for 24 hours", "value": "≤ 8", "unit": "h"}, {"measurement": "Recovery of PBL counts to baseline", "setting": "[1]; after nadir", "value": 4, "unit": "days"}]}]}
